This passage reports EC50 results from patent publication US9067898B1, “Isothiazole derivatives as GPR120 agonists for the treatment of type II diabetes” (Janssen Pharmaceutica NV, priority 2014, dated 2015).

One assay has as its target T1, Human GPR120 short form (Homo sapiens, UniProt Q5NUL3).
T1 construct: expressed in transfected cells
T1 sequence (Q5NUL3 1-361): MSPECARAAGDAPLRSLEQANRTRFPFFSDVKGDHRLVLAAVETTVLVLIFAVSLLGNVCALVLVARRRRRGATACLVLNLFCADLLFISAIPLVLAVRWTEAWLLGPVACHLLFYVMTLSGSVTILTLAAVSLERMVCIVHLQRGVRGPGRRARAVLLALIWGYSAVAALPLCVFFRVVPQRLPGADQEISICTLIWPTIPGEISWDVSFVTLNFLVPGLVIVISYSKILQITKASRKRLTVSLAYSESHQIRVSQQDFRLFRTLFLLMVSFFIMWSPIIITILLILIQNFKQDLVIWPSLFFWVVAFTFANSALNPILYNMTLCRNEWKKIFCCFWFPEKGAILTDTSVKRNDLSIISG
The assay can be described thus: Human GPR120 calcium flux assay (FLIPR), Procedure Calcium B. It counts as cell-based. The conditions noted are these: HEK-293 cells expressing human GPR120 short form, 4200 cells/well; read-out: GPR120 Ca2+ Assay B EC50. From the text:
This in vitro assay serves to assess test compound agonist activity against the short splice variant (SVS with Accession number NM_001195755.1 confirmed by sequencing data) of the GPR120 receptor. The Human Short splice variant #2 (NM_001195755.1) is missing an in-frame coding exon compared to variant 1 (the Human Long splice variant NM_181745.3), resulting in a shorter isoform (GPR120-S) lacking a 16 aa protein segment compared to isoform GPR120-L. The assay platform utilizes HEK-293 cells stably transfected to express the Human GPR120 short form. These cells are first loaded with the Ca^+2 sensitive dye, Fluo-4 NW. Upon stimulation, intracellular released Ca^+2 can bind to the dye and alter its fluorescence intensity. This increase in fluorescence signal, and thus the flux in intracellular [Ca^2+], is detected and quantitated by fluorescence imaging using a FLIPR reader. The effect of the agonist is measured as a function of concentration and used to calculate an EC50 based upon a response curve.
In this procedure 4200 cells/well were employed.
A Human GPR120 clone (Genbank accession number NM_001195755.1) was placed into the pcDNA3.1 mammalian expression vector carrying the neomycin resistance gene. A stable mammalian cell was generated by placing the above clone into a HEK293 background. Clonal cells responding to long chain fatty acids had expression levels of GPR120 confirmed by RT-qPCR. Human HEK-GPR120 cells were cultured in Dulbecco's Modified Eagle's Medium (DMEM)/F12 medium supplemented with 10% fetal bovine serum (FBS), 1% L-Glutamine and 1% penicillin/streptomycin and 0.5 mg/ml G-418. Cells were split 2 times a week to keep the cells in the log-phase growth.
In preparation for the assay, HEK cells stably transfected with Human GPR120 (2.5K cells per well in 25 uL growth medium) were seeded into 384-well plates and then incubated overnight (37° C., 5% CO2). The next day, the media was changed to 20 μL assay buffer and the cell starved for 1 h at 37° C. The dye loading solution (2× dye) was prepared using 10 mL assay buffer, 100 μL of 250 mM probenecid, 1 bottle of Component A, and 20 μl of dye in DMSO. Twenty μL of the 2× dye loading buffer was then added to each well. The plates were incubated at 37° C. for 30 min, then at room temperature for an additional 15 minutes, before performing the assay on FLIPR. Test compounds were prepared in assay buffer (2 uL of cpd+198 uL assay buffer, final DMSO in assay plate is 0.2%) at the desired concentration, more particularly at 100, 50, 25, 12.5, 6.25, 3.125, 1.562, 0.781, 0.391, 0.195, 0.098, 0.049, 0.024 and 0.012 μM.
The assay was performed on a FLIPR plate reader using the following parameters. Baseline was read for 10 seconds at 1 sec intervals. The program was set to transfer 10 μL of ligand from compound plate to cell plate after baseline reading. Aspiration was executed at: 10 μL/sec speed, 4.6 μL height; Dispensing was executed at: 30 μL/sec speed, 45 μL height. After compound addition, each well was read for 300 sec, with measurements collected at 1 sec intervals.
The kinetic data from the FLIPR was based upon a 5 minute window for data collection. The fluorescence of each sample well was used for individual calculations of a normalized RFU value, which was defined as maximum response minus the minimum response. The normalized fluorescence reading (RFU) was calculated as follows: RFU=Fmax−Fmin The data were fitted to a sigmoidal dose-response curve with a variable Hill slope (<2) using nonlinear regression with GraphPad Prism 5.0 to calculate the EC50 values. The Fitting Equation was: Y=Bottom+(Top−Bottom)/(1+10^((Log EC50−X)*HillSlope)), where X is the log of the concentration and Y is the response.
For orientation: Calcium assays in cells follow changes in intracellular calcium, usually with a dye or a luminescent sensor.

The target in assay [1] is T2, short form of the GPR120 receptor (GPR120S) (Homo sapiens, UniProt Q5NUL3).
T2 construct: host or cells: PathHunter CHO-K1 GPR120S β-Arrestin Cell Line
T2 sequence (P32121 whole entry partner, one chain of several): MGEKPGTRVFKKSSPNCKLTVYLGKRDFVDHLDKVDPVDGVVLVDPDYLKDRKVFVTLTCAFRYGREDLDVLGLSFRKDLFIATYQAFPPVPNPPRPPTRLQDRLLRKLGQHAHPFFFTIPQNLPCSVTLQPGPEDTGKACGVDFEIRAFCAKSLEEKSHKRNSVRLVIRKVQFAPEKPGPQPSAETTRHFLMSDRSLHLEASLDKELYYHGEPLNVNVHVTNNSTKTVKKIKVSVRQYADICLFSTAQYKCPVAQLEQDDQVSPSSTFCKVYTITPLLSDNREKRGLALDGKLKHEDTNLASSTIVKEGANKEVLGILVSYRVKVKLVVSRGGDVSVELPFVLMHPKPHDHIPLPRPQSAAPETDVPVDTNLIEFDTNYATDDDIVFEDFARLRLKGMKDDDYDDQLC
The assay can be described thus: Human GPR120 DiscoveRx PathHunter Beta-Arrestin assay, Procedure β-arrestin B. It counts as cell-based. The conditions noted are these: PathHunter CHO-K1 GPR120S β-Arrestin cell line, 5000 cells/well, read-out: hGPR120 β-arrestin B EC50. Summed up: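 PathHunter CHO-K1 β-arrestin cells expressed long-form GPR120 (Procedure A, 3000 cells/well) or short-form GPR120 (Procedure B, 5000 cells/well). Compounds were serially diluted from 25 µM and incubated 90 min at 37 °C in HBSS/20 mM HEPES/0.1% BSA, pH 7.4. Luminescence was read after 60 min detection at RT; EC50 comes from % activity versus positive control, Hill slope fixed at 1.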

Usually EC50 stands for the concentration at which the effect is half-maximal. With `COc1ncc(-c2nsc(C(F)(F)F)c2COc2ccc(CCC(=O)O)c(C)c2C)s1` [Cpd 268, 3-(4-{[3-(2-Methoxy-1,3-thiazol-5-yl)-5-(trifluoromethyl)isothiazol-4-yl]methoxy}-2,3-dimethylphenyl)propanoic acid], the EC50 on Human GPR120 short form was found to be 473 nM; in assay [1] it was 445 nM.

Turning to `Cc1c(CCC(=O)O)ccc(OCc2c(-c3cnc(Cl)s3)nsc2C(F)(F)F)c1C` [Cpd 269, 3-(4-{[3-(2-Chloro-1,3-thiazol-5-yl)-5-(trifluoromethyl)isothiazol-4-yl]methoxy}-2,3-dimethylphenyl)propanoic acid], the EC50 at Human GPR120 short form amounted to 194 nM; in assay [1], 676 nM.

Regarding `O=C(O)CCc1cc(F)c(OCc2c(-c3ccc(Cl)cn3)nsc2C(F)(F)F)c(F)c1` [Cpd 270, 3-(4-{[3-(5-Chloropyridin-2-yl)-5-(trifluoromethyl)isothiazol-4-yl]methoxy}-3,5-difluorophenyl)propanoic acid], the values for the EC50 (on Human GPR120 short form; in assay [1]) were 108 nM and 246 nM, respectively.

Take `COc1ccc(-c2nsc(C(F)(F)F)c2COc2c(F)cc(CCC(=O)O)cc2F)nc1` [Cpd 271, 3-(3,5-Difluoro-4-{[3-(5-methoxypyridin-2-yl)-5-(trifluoromethyl)isothiazol-4-yl]methoxy}phenyl)propanoic acid]: the EC50 at Human GPR120 short form amounted to 242 nM; in assay [1] it was 325 nM.

As to `O=C(O)CCc1cc(F)c(OCc2c(-c3ccns3)nsc2C(F)(F)F)c(F)c1` [Cpd 272, 3-(3,5-Difluoro-4-{[5-(trifluoromethyl)-3,5′-biisothiazol-4-yl]methoxy}phenyl)propanoic acid], the EC50 was determined as 573 nM at Human GPR120 short form and 750 nM in assay [1].

With `CCc1ccc(-c2nsc(C(F)(F)F)c2COc2c(F)cc(CCC(=O)O)cc2F)nc1` [Cpd 273, 3-(4-{[3-(5-Ethylpyridin-2-yl)-5-(trifluoromethyl)isothiazol-4-yl]methoxy}-3,5-difluorophenyl)propanoic acid], the values for the EC50 (on Human GPR120 short form; in assay [1]) were 427 nM and 721 nM, respectively.
